Data on 2 compounds can be found in patent US11723883B2, “Hydroxynorketamine for the use in the treatment of depression” (DEVELCO PHARMA SCHWEIZ AG, priority 2017, dated 2023).

The nature of data set [1]: Dose-escalation pharmacokinetics and metabolism study in 15 healthy subjects (LC-MS/MS). On the procedure:
(§1) A dose-escalation study was performed in five consecutive periods (7 days wash-out) in 15 healthy subjects (5 females, 20-25, BMI 19.4-27.6 kg/m2). The racemic analytes were measured using validated LC-MS/MS methods according to Hasan et al., 2017 (Hasan et al., Quantitative chiral and achiral determination of ketamine and its metabolites by LC-MS/MS in human serum, urine and fecal samples, Journal of Pharmaceutical and Biomedical Analysis, 2017, 139, 87-97).
(§2) In addition, 5 mg ketamine (in form of ketamine hydrochloride) solution was intravenously administered within 30 min in fasting state.
The pharmacokinetics of ketamine and its metabolites norketamine and hydroxynorketamine were measured and depicted in the following table 1. AUC stands for the area under the curve, Cmax stands for the maximum plasma concentration, Tmax stands for the time to Cmax, F stands for absolute bioavailability, T1/2 stands for the apparent terminal half-life, AUCNK/K for the ratio of AUCNK to AUCK and AUCHNK/K for the ratio of AUCHNK to AUCK.
The maximum concentration (Cmax) and the time of maximum concentration (Tmax) were obtained directly from the measured concentration-time curves.
The area under the concentrations-time curve (AUC) was calculated with the measured data points from the time of administration until the last quantifiable concentration by the trapezoidal formula. The AUC was assessed up to the last sampling time above the limit of quantification and is extrapolated to infinity to obtain the AUC values.
Apparent Terminal half-life (T1/2) was calculated by the following equation T1/2=ln 2/λz.
The terminal elimination rate constant (λz) was evaluated from the terminal slope by log-linear regression analysis.
The absolute bioavailability (F) was calculated by the following equation Fabs=AUCoral/AUCiv×doseiv/doseoral. 4.2 Safety

Data set [2] is described as follows: Safety: adverse events in the dose-escalation study in healthy subjects. Here is the method:
as §1, §2
An adverse event (AE) therefore can be any unfavorable and unintended sign including an abnormal laboratory (or vital, ECG etc.) finding, symptom or disease temporally associated with the use of a medicinal (investigational) product, whether or not related to the medicinal (investigational) product.
A serious adverse event (SAE) is defined as any untoward medical occurrence that at any dose • results in death, or • is life-threatening, or • requires hospitalization or prolongation of existing hospitalization, or • results in persistent or significant disability/incapacity, or • is a congenital anomaly/birth defect
Adverse events (AE) were detected both by a standardized questionnaire on tolerability and by querying the subjects at the scheduled times. Furthermore, the subjects were asked to report any AE spontaneously.

The subject of data set [3] is patients with major depressive disorder and bipolar depression. The following applies: single intravenous 40-minute infusion; lasting 1 week; Zarate et al., 2012; cited from earlier work.
Another data set relates to mice. The settings on record: Zanos et al., 2016, cited from earlier work.
The mark [4] stands for this setting: 5 mg ketamine i.v. infusion (30 min), fasting.
[5] abbreviates: Treatment A ketamine 5 mg i.v., AEs certainly, probably or possibly related.

As for `CNC1(c2ccccc2Cl)CCCCC1=O` (racemic) [ketamine, 2-(2-chlorophenyl)-2-(methylamino) cyclohexan-1-one], in data set [1] (setting [4]), the CL/F of ketamine was found to be 1.67 ± 0.380 L/min, the CLM of ketamine came to 268 ± 75.6 mL/min and the CLintestinal of ketamine is 0.046 ± 0.097 mL/min. Further, in data set [1] (both, human, plasma, iv, 5 mg), the AUC is 52.3 ± 12.2 ng·h/mL, the CL renal stood at 33.6 ± 36.5 mL/min, the Cmax worked out at 29.9 ± 8.48 ng/mL and the MRT amounted to 4.68 ± 2.01 h. For the same compound, in data set [1] (both, human, plasma, iv, 5 mg), the Vd amounted to 6.58 ± 3.07 L/kg and the half-life is 5.89 ± 2.61 h. For the same compound, the “Number of AEs” value in data set [2] (Treatment A (ketamine 5 mg i.v.)) was found to be 10. For the same compound, in data set [2] (setting [5]), the “Number of subjects reporting dizziness (nervous system disorders)” value worked out at 6, the “Number of subjects reporting palpitation (cardiac disorders)” value was determined as 1, the “Number of subjects reporting tachycardia (cardiac disorder)” value is recorded as 1 and the “Percent of subjects reporting dizziness (nervous system disorders)” value is on record as 40%. Also, in data set [2] (setting [5]), the “Percent of subjects reporting palpitation (cardiac disorders)” value is 7% and the “Percent of subjects reporting tachycardia (cardiac disorder)” value is 7%. Further, the “improvement in patients with major depressive disorder and bipolar depression” value in data set [3] is “rapid improvement”.

For `N[C@@]1(c2ccccc2Cl)CCC[C@@H](O)C1=O` [(2R,6R)-hydroxynorketamine], in the data set with mice, the ketamine-related side effects result is given as “lack ketamine-related side effects”. Besides, in the data set on mice (independent of NMDR-inhibition), the antidepressant-related actions entry was “exerts antidepressant-related actions”.

A word on the AUC: it is the area under the concentration-time curve, a measure of exposure. A lower AUC goes with low exposure. In general, Cmax refers to the peak of the concentration-time curve. A word on the MRT: it is a mean duration of stay, worked out from the concentration-time curve. The term Vd denotes the apparent volume that relates the amount in the body to the concentration in plasma or blood. As a reminder, the half-life is the time in which the quantity being followed falls by half. A higher half-life goes with slow decline.
